{"source": "patent US12624396B2", "about": "“Methods for alleviating facioscapulohumeral dystrophy (FSHD) by an antisense nucleic acid molecule inhibiting the expression of double homeobox 4 (DUX4)” (Fred Hutchinson Cancer Center, priority 2010, dated 2026)", "key": {"[1]": {"system": "DUX4 mRNA in FSHD fibroblasts", "test": "DUX4 mRNA in FSHD fibroblasts with beta-estradiol inducible MyoD, cycloheximide addition and washout", "type": "cell-based, human", "conditions": "MyoD induction, 38 hours in differentiation conditions, chx added, FIG. 24", "description": "The 3-prime untranslated region (UTR) of the DUX4 mRNA has an unusual exon-intron structure. The translational stop codon is in the first exon, whereas the polyadenylation sequence is in the third exon. The separation of the translational stop codon from the polyadenylation site by two exon-intron junctions would be predicted to make this mRNA subject to translation dependent nonsense mediated decay.\nFSHD fibroblasts expressing low amounts of DUX4 mRNA were stably transduced with a beta-estradiol inducible MyoD so that addition of beta-estradiol will convert them to skeletal muscle, which after 96 hours of induction increases the steady-state levels of the DUX4 mRNA and activates expression of the MyoD target Mgn (compare lanes 1 and 2). […] Washout of the chx results in the rapid loss of the DUX4 mRNA, disappearing between 2 and 8 hrs of washout. The loss of DUX4 mRNA is associated with its translation since the DUX4 target PRAME 1 is induced as the DUX4 mRNA disappears."}, "[2]": {"system": "DUX4-fl mRNA in FSHD muscle cells", "test": "DUX4-fl mRNA in FSHD muscle cells treated with MAO inhibitors (RT-PCR)", "type": "cell-based, human", "description": "The monamine oxidase inhibitor pargyline has been reported to inhibit the activity of the LSD1 histone demethylase that demethylates H3K9.\nFIG. 22 graphically illustrates that pargyline decreases the amount of DUX4 mRNA in FSHD muscle cells.\nMiddle panel is a no RT control and bottom panel is a GAPDH loading control."}}, "note": "“Also recorded” adds a separate entry of the source.", "data": [{"molecule": "C[C@@H]1C[C@@H]([C@H](O)CC2CC(=O)NC(=O)C2)C(=O)[C@@H](C)C1", "note": "[cycloheximide]", "values": [{"measurement": "DUX4 mRNA level", "setting": "[1]", "result": "accumulation of the DUX4 mRNA; also recorded: significant increase in DUX4 mRNA"}]}, {"molecule": "C#CCN(C)Cc1ccccc1", "note": "[pargyline]", "values": [{"measurement": "abundance of DUX4-fl mRNA", "setting": "[2]; FSHD muscle cells expressing endogenous DUX4-fl mRNA, quantitative RT-PCR, FIG. 22", "result": "suppresses the expression of DUX4 mRNA; also recorded: decreases the abundance of DUX4-fl mRNA in a dose-dependent manner"}, {"measurement": "amount of DUX4-fl mRNA", "setting": "[2]; cultured FSHD muscle cells differentiated 48 hours in differentiation medium with varying amounts of pargyline, RT-PCR, FIG. 23", "result": "dose-dependent inhibition of DUX4 mRNA expression"}]}]}
